The record followed here is PubChem BioAssay (NCI).

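Step 1: Grow cells in 96-well plates. Step 2: Expose to compound for 48 hours at 5 concentrations. Step 3: Interpolate endpoints linearly; if unreached, use highest concentration. TGI: total growth inhibition.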

Among the test systems are NCI-H226 lung; A549 NSCLC; SF-539 CNS; TK-10 renal; SK-MEL-5 melanoma; UACC-257 melanoma; IGROV1 ovarian; HCT-15 colon; MCF7 breast; SR leukemia.
Holding throughout (test): growth of human tumour cells (NCI), 48 h

Consider `FC1=C2C3CCC(C3)C2C1(F)F` (stereo not given), for which the TGI in the assay with NCI-H226 lung, in the assay on A549 NSCLC, in the assay on SF-539 CNS, with TK-10 renal, in the assay with SK-MEL-5 melanoma and with UACC-257 melanoma was over 100 µM in each case. The TGI in the assay on IGROV1 ovarian, in the assay with HCT-15 colon and with MCF7 breast was over 100 µM in each case.
As to `CC(=O)C(=Cc1cn(C)c(=O)n(C)c1=O)C(C)=O`, the TGI with NCI-H226 lung stood at 293 µM; in the assay with A549 NSCLC, 565 µM; with SF-539 CNS, 209 µM; with SK-MEL-5 melanoma, 176 µM; in the assay on UACC-257 melanoma, 177 µM; with IGROV1 ovarian, 470 µM. The values for the TGI in the assay with HCT-15 colon and with MCF7 breast were 218 µM and 625 µM, respectively.
As for `COc1cc2c(cc1O)C1Cc3ccc(OC)c(O)c3C[N+]1(C)CC2` (stereo not given), the TGI in the assay with NCI-H226 lung, in the assay with A549 NSCLC, in the assay with SF-539 CNS, in the assay with TK-10 renal, with SK-MEL-5 melanoma and with IGROV1 ovarian was over 100 µM in each case. Moreover, the TGI in the assay with HCT-15 colon and in the assay on MCF7 breast was over 100 µM throughout.
Consider `CC1=C(C)C(=O)C(C2=CC(=O)c3ccccc3C2=O)=C(C2=CC(=O)c3ccccc3C2=O)C1=O`, for which the TGI in the assay with NCI-H226 lung is 49.5 µM; with A549 NSCLC, over 100 µM; with SF-539 CNS, over 100 µM; in the assay with TK-10 renal, over 38.4 µM; with UACC-257 melanoma it was 28.6 µM; in the assay on IGROV1 ovarian, 29.8 µM. In the assay on HCT-15 colon, the TGI was over 100 µM.
On to `COC(=O)c1sc(=O)sc1SCc1cccc(CSc2sc(=O)sc2C(=O)OC)c1`, for which the TGI with NCI-H226 lung was over 100 µM; in the assay with A549 NSCLC, over 100 µM; with TK-10 renal, 57.5 µM; with SK-MEL-5 melanoma, over 100 µM; in the assay with UACC-257 melanoma it was over 100 µM; in the assay with IGROV1 ovarian it was over 100 µM. In addition, the TGI in the assay with HCT-15 colon and with MCF7 breast was over 100 µM each time.
For the compound `N#Cc1c(-c2ccc([N+](=O)[O-])cc2)c(C#N)c(=O)n(NS(=O)(=O)c2ccccc2)c1S`, the TGI was over 100 µM in the assay on NCI-H226 lung; over 100 µM in the assay on A549 NSCLC; 46.1 µM with SF-539 CNS; over 100 µM in the assay with TK-10 renal; 30.4 µM in the assay with SK-MEL-5 melanoma; over 100 µM with UACC-257 melanoma. The TGI was 48.3 µM in the assay on IGROV1 ovarian, over 100 µM with HCT-15 colon and over 100 µM in the assay on MCF7 breast.
Regarding `CC1=C(CO)C(=O)OC(C(C)C2CCC3C4CC5OC56C(O)C(N5CC5)=CC(=O)C6(C)C4CCC23C)C1` (stereo not given), the TGI was determined as 10.5 µM in the assay on SR leukemia; 29.1 µM in the assay with NCI-H226 lung; 29.6 µM in the assay with A549 NSCLC; 14 µM with SF-539 CNS; 22 µM in the assay with TK-10 renal; 25.4 µM with SK-MEL-5 melanoma. Also, the TGI was 24.4 µM in the assay with UACC-257 melanoma, 14.4 µM with IGROV1 ovarian and 12.9 µM with HCT-15 colon.
On to `O=C1[C@@H]2[C@@H](CN3CN(c4ccccc4)N=C(c4ccccc4)[C@@]23c2ccccc2)C(=O)N1c1ccccc1`, for which the TGI with SR leukemia was over 100 µM; in the assay with NCI-H226 lung, 8.87 µM; in the assay on A549 NSCLC, 19.7 µM; in the assay with TK-10 renal it was 3.13 µM; in the assay with SK-MEL-5 melanoma, 32.6 µM; in the assay with UACC-257 melanoma, 29.1 µM. For the same compound, the TGI in the assay with IGROV1 ovarian is 29.5 µM; in the assay on HCT-15 colon, 5.25 µM; with MCF7 breast, 4.04 µM.
Regarding `COC(=O)[C@]1(c2cc3ccccc3n2S(=O)(=O)c2ccccc2)CC2CN(C(=O)OCc3ccccc3)C1C1OC(C)(C)OC21` (stereo not given in full), the TGI in the assay with NCI-H226 lung, in the assay on A549 NSCLC, in the assay on TK-10 renal, in the assay on SK-MEL-5 melanoma, with UACC-257 melanoma and in the assay on IGROV1 ovarian was over 100 µM in each case. The TGI with HCT-15 colon and with MCF7 breast was over 100 µM each time.
Regarding `Cn1c(=O)c2c(nc3[nH]c(=O)c(Br)cn32)n(C)c1=O`, the TGI in the assay with SR leukemia, in the assay on NCI-H226 lung, with A549 NSCLC, in the assay with SF-539 CNS, with TK-10 renal and in the assay on SK-MEL-5 melanoma was over 100 µM in each case. Also, the TGI with UACC-257 melanoma, in the assay with IGROV1 ovarian and with HCT-15 colon was over 100 µM in each case.
On to `COC(=O)c1c2c(cc3c1CC1(Cc4cc5c(c(C=O)c4C1)CCC5)C3)CCC2` (stereo not given), for which the TGI with SR leukemia is 53.7 µM; in the assay with A549 NSCLC it was over 100 µM; in the assay with SF-539 CNS it was over 100 µM; in the assay on TK-10 renal it was over 100 µM; in the assay with SK-MEL-5 melanoma it was 37.2 µM; with UACC-257 melanoma, 71.3 µM. For the same compound, the TGI in the assay with IGROV1 ovarian, in the assay on HCT-15 colon and with MCF7 breast was over 100 µM in each case.
Consider `O=c1[nH]c(=O)n(COC(CO)CO)cc1-c1ccccc1`, for which the TGI in the assay with SR leukemia, with A549 NSCLC, in the assay with TK-10 renal, in the assay with SK-MEL-5 melanoma, with UACC-257 melanoma and with IGROV1 ovarian was over 100 µM throughout. Further, the TGI in the assay on HCT-15 colon and in the assay with MCF7 breast was over 100 µM each time.
Turning to `NC(=O)CCC(N=c1c2ccccc2n(O)c2ccccc12)C(=O)O` (stereo not given), the TGI in the assay on NCI-H226 lung, with A549 NSCLC, in the assay with TK-10 renal, in the assay with SK-MEL-5 melanoma, in the assay with IGROV1 ovarian and in the assay on HCT-15 colon was over 100 µM throughout.
Turning to `COc1ccc(N2C(=O)C3c4[nH]c5c(C)cccc5c4C4CCC(C(C)C)CC4C3C2=O)cc1` (stereo not given), the TGI was 32.5 µM in the assay on SR leukemia; 36.1 µM in the assay on NCI-H226 lung; over 100 µM in the assay on A549 NSCLC; 76.8 µM in the assay with TK-10 renal; over 100 µM in the assay with SK-MEL-5 melanoma; over 100 µM in the assay on UACC-257 melanoma. The TGI in the assay on IGROV1 ovarian stood at 23.5 µM; in the assay with HCT-15 colon it was 40.6 µM; in the assay on MCF7 breast, 31.4 µM.
`CC(=O)n1[nH]c(=O)n(-c2ccc(Cl)cc2)c1=O`: the TGI in the assay with SR leukemia, in the assay with NCI-H226 lung, with A549 NSCLC, in the assay with TK-10 renal, with SK-MEL-5 melanoma and with UACC-257 melanoma was over 100 µM throughout. Further, the TGI with IGROV1 ovarian, in the assay with HCT-15 colon and with MCF7 breast was over 100 µM in each case.
